Results as given in publication PMC11133627, “CATH-2-derived antimicrobial peptide inhibits multidrug-resistant Escherichia coli infection in chickens” (Frontiers in Cellular and Infection Microbiology, 2024).
In brackets after ≈: the same amount, converted by molar mass.

Tests used:
E. coli (E16) = assay: Chicken infection with MDR E. coli; assay type: in vivo
Description: Except for the blank control group injected with 500 μL of normal saline, the other four groups were injected with 500 μL of 3×10^9 CFU/mL E. coli (E16) into the pectoral muscles. […] Clinical symptoms and were observed and documented for the chickens in each group after infection. After 72h, the chickens in each group were euthanized and examined for internal organ damage. Paraffin sections were prepared for microscopic examination of pathological changes. Under sterile conditions, 1 g samples of heart, liver, and spleen were collected, and each sample was supplemented with 20 mL of sterile PBS. After thorough grinding, the sample was diluted to the appropriate multiple, and 100 μL of the diluent was spread onto LB agar medium. The plates were incubated for 24h, after which the colonies were counted.

[1] = system: E. coli clinical isolate E1; assay: microbe, parasite or virus in culture; settings: Escherichia coli
Description: (§1) The minimum inhibitory concentrations (MICs) of the AMPs were determined using the microbroth dilution technique ([van Harten et al., 2021]). One hundred microliters of bacterial suspension at a concentration of 1×10^6 CFU/mL was pipetted into a 96-well plate. Then, 100 μL of AMP or gentamicin at various concentrations was added, while the bacterial suspension without AMPs and blank medium were used as controls.

[2] = system: E. coli clinical isolate E14; assay: Drug-sensitivity test (paper disc, inhibition zone); assay type: cell-based, Escherichia coli; parameters: key to Drug sensitivity of E. coli E14: R: resistant strains; I: intermediate strains; S: sensitive strains; settings: for Drug sensitivity of E. coli E14: 6 mm antibiotic paper on LB agar, 1×10^6 CFU/mL, 24h 37°C, inhibition zone diameter
Description: (§2) E. coli (ATCC 8739) and clinical isolates of E. coli (E1, E9, E12, E14, E16, and E18) were stored at the Animal Biochemical Laboratory of Shanxi Agricultural University and grown in Luria-Bertani (LB) broth as previously reported ([Zhao et al., 2021]). Circular 6 mm paper pieces were prepared with filter paper and autoclaved for sterilization. […] Then, 0.5 mL of antibiotic solution was added to 100 sterilized papers. Subsequently, the paper pieces were fully infiltrated and dried in a vacuum drying oven to produce antibiotic susceptibility papers. The E. coli strain was retrieved from the -20°C freezer and activated by incubating it on LB agar media at 37°C for 24h. Individual colonies were selected and transferred to LB liquid media. Thereafter, the E. coli suspension was obtained by shaking at 37°C and 160 r/min for 18h. The obtained suspension was centrifuged at 5000 r/min for 5min, after which the supernatant was discarded, and the bacteria were resuspended in fresh medium to a concentration of 1×10^6 CFU/mL. Two hundred microliters of the bacterial suspension mentioned above was spread evenly onto LB agar medium. Then, the antibiotic susceptibility papers were placed on the medium surface using sterile tweezers. After 24h of incubation at 37°C, the diameter of the inhibition zone was measured to determine the susceptibility of E. coli to antibiotics.

[3] = system: E. coli clinical isolate E14; assay: microbe, parasite or virus in culture; assay type: cell-based, Escherichia coli; settings: Escherichia coli
Description: as §1

[4] = system: E. coli clinical isolate E9; assay: microbe, parasite or virus in culture; assay type: cell-based, Escherichia coli; settings: Escherichia coli
Description: as §1

E. coli (ATCC 8739) [5] = assay: microbe, parasite or virus in culture; assay type: cell-based, Escherichia coli; settings: Escherichia coli, ATCC8739
Description: as §1

[6] = system: E. coli clinical isolate E16; assay: microbe, parasite or virus in culture; assay type: cell-based, Escherichia coli; settings: Escherichia coli
Description: as §1

[7] = system: E. coli clinical isolate E18; assay: microbe, parasite or virus in culture; assay type: cell-based, Escherichia coli; settings: Escherichia coli
Description: as §1

[8] = system: E. coli clinical isolate E12; assay: microbe, parasite or virus in culture; assay type: cell-based, Escherichia coli; settings: Escherichia coli
Description: as §1

[9] = system: E. coli clinical isolate E12; assay: Drug-sensitivity test (paper disc, inhibition zone); assay type: cell-based, Escherichia coli; parameters: key to Drug sensitivity of E. coli E12: R: resistant strains; I: intermediate strains; S: sensitive strains; settings: for Drug sensitivity of E. coli E12: 6 mm antibiotic paper on LB agar, 1×10^6 CFU/mL, 24h 37°C, inhibition zone diameter
Description: as §2

[10] = system: E. coli clinical isolate E1; assay type: cell-based; parameters: key: R: resistant strains; I: intermediate strains; S: sensitive strains; settings: 6 mm antibiotic paper on LB agar, 1×10^6 CFU/mL, 24h 37°C, inhibition zone diameter
Description: as §2

[11] = system: E. coli clinical isolate E16; assay: Drug-sensitivity test (paper disc, inhibition zone); assay type: cell-based, Escherichia coli; parameters: key to Drug sensitivity of E. coli E16: R: resistant strains; I: intermediate strains; S: sensitive strains; settings: for Drug sensitivity of E. coli E16: 6 mm antibiotic paper on LB agar, 1×10^6 CFU/mL, 24h 37°C, inhibition zone diameter
Description: as §2

E. coli (ATCC 8739) [12] = assay: Sterilization kinetics assay; assay type: cell-based, Escherichia coli; settings: 8 μg/mL, 1×10^5 CFU/mL, 37°C, colony count
Description: The sterilization kinetics assay was performed following previous methods ([Peng et al., 2022]; [Yong Fang et al., 2023]). […] At each time point, 10 μL of sample was diluted in 1 mL of PBS, and 100 μL of the dilution was plated on LB agar plates. After incubating at 37°C for 24h, the number of colonies was counted.

[13] = system: E. coli clinical isolate E9; assay: Drug-sensitivity test (paper disc, inhibition zone); assay type: cell-based, Escherichia coli; parameters: key: R: resistant strains; I: intermediate strains; S: sensitive strains; settings: 6 mm antibiotic paper on LB agar, 1×10^6 CFU/mL, 24h 37°C, inhibition zone diameter
Description: as §2

E. coli (ATCC 8739) [14] = assay: as above; assay type: cell-based, Escherichia coli; parameters: key: R: resistant strains; I: intermediate strains; S: sensitive strains; settings: 6 mm antibiotic paper on LB agar, 1×10^6 CFU/mL, 24h 37°C, inhibition zone diameter
Description: as §2

[15] = system: E. coli clinical isolate E18; assay: as above; assay type: cell-based, Escherichia coli; parameters: key: R: resistant strains; I: intermediate strains; S: sensitive strains; settings: 6 mm antibiotic paper on LB agar, 1×10^6 CFU/mL, 24h 37°C, inhibition zone diameter
Description: as §2

[16] = system: 6 E. coli strains (E1, E9, E12, E14, E16, E18); assay type: cell-based, Escherichia coli; settings: paper disc test
Description: as §2

## CNC(C)C1CCC(N)C(OC2C(N)CC(N)C(OC3OCC(C)(O)C(NC)C3O)C2O)O1 (stereo not drawn) [gentamicin, reference compound]
E. coli (E16); 200 μg/mL, 500 μL into pectoral muscle 4h after 1.5×10^9 CFU E16
  3-day mortality rate: 10%
E. coli (E16); after 3 days of infection, vs infected untreated
  Bacterial loads in the heart, liver and spleen (in words): significantly reduced
E. coli (E16); autopsy, vs E. coli infection group
  Organ lesions of heart, liver, intestine (in words): significant reduction in organ lesions
[1]; 18 h, read-out: MIC against E. coli E1
  MIC: 64 µg/mL (≈ 134 µM)
[1]; 24 h, read-out: MBC against E. coli E1
  MBC: 64 µg/mL (≈ 134 µM)
[2]
  Drug sensitivity of E. coli E14: S
[2]; paper disc test
  Drug sensitivity of E. coli E14 (in words): susceptible
[3]; 50 μL from fully inhibited wells plated on LB agar, colonies counted after 24h 37°C, read-out: MBC against E. coli E14
  MBC: 4 µg/mL (≈ 8.38 µM)
[3]; microbroth dilution, 1×10^6 CFU/mL, 37°C 18h, turbidity, read-out: MIC against E. coli E14
  MIC: 4 µg/mL (≈ 8.38 µM)
[4]; 50 μL from fully inhibited wells plated on LB agar, colonies counted after 24h 37°C, read-out: MBC against E. coli E9
  MBC: 8 µg/mL (≈ 16.8 µM)
[4]; microbroth dilution, 1×10^6 CFU/mL, 37°C 18h, turbidity, read-out: MIC against E. coli E9
  MIC: 8 µg/mL (≈ 16.8 µM)
E. coli (ATCC 8739) [5]; 50 μL from fully inhibited wells plated on LB agar, colonies counted after 24h 37°C, read-out: MBC against E. coli ATCC 8739
  MBC: 8 µg/mL (≈ 16.8 µM)
E. coli (ATCC 8739) [5]; microbroth dilution, 1×10^6 CFU/mL, 37°C 18h, turbidity, read-out: MIC against E. coli ATCC 8739
  MIC: 8 µg/mL (≈ 16.8 µM)
[6]; 50 μL from fully inhibited wells plated on LB agar, colonies counted after 24h 37°C, read-out: MBC against E. coli E16
  MBC: 4 µg/mL (≈ 8.38 µM)
[6]; microbroth dilution, 1×10^6 CFU/mL, 37°C 18h, turbidity, read-out: MIC against E. coli E16
  MIC: 4 µg/mL (≈ 8.38 µM)
[7]; 50 μL from fully inhibited wells plated on LB agar, colonies counted after 24h 37°C, read-out: MBC against E. coli E18
  MBC: 128 µg/mL (≈ 268 µM)
[7]; microbroth dilution, 1×10^6 CFU/mL, 37°C 18h, turbidity, read-out: MIC against E. coli E18
  MIC: 64 µg/mL (≈ 134 µM)
[8]; 50 μL from fully inhibited wells plated on LB agar, colonies counted after 24h 37°C, read-out: MBC against E. coli E12
  MBC: 4 µg/mL (≈ 8.38 µM)
[8]; microbroth dilution, 1×10^6 CFU/mL, 37°C 18h, turbidity, read-out: MIC against E. coli E12
  MIC: 4 µg/mL (≈ 8.38 µM)
[9]
  Drug sensitivity of E. coli E12: S
[9]; paper disc test
  Drug sensitivity of E. coli E12 (in words): susceptible
[10]
  Drug sensitivity of E. coli E1: R
[11]
  Drug sensitivity of E. coli E16: S
[11]; paper disc test
  Drug sensitivity of E. coli E16 (in words): susceptible
E. coli (ATCC 8739) [12]
  Time for complete bacterial eradication: ≤ 60 min
[13]
  Drug sensitivity of E. coli E9: I
E. coli (ATCC 8739) [14]
  Drug sensitivity of E. coli ATCC 8739: I
[15]
  Drug sensitivity of E. coli E18: R

## penicillin
[2]
  Drug sensitivity of E. coli E14: R
[9]
  Drug sensitivity of E. coli E12: R
[10]
  Drug sensitivity of E. coli E1: R
[11]
  Drug sensitivity of E. coli E16: R
[16]
  Resistance of the 6 clinical E. coli strains (in words): resistant
[13]
  Drug sensitivity of E. coli E9: R
E. coli (ATCC 8739) [14]
  Drug sensitivity of E. coli ATCC 8739: S
[15]
  Drug sensitivity of E. coli E18: R
